Results from the supplement of paper PMC6965134.
± gives the standard deviation of the averaged measurements.

Test: TIMS collisional cross section (CCS, N2) of the lipid ion; higher = larger ion cross section
Details: ionization mode: positive, one isomer drawn

SMILES: CCCCCCCC/C=C\CCCCCCCCCCCCCC(=O)N[C@@H](COP(=O)([O-])OCC[N+](C)(C)C)[C@H](O)/C=C/CCCCCCCCCCCC [SM d17:1_24:1@] (ion (formula + adduct): [C46H91N2O6P+H] 1+)
- TIMS collisional cross section (sample type: HeLa): 302.1 Å²

SMILES: CCCCCCCCCCCCCCCCCCCCCCCC(=O)N[C@@H](COP(=O)([O-])OCC[N+](C)(C)C)[C@H](O)CCCCCCCCCCCCCCC [SM d18:0_24:0@] (ion (formula + adduct): [C47H97N2O6P+H] 1+)
- TIMS collisional cross section (sample type: plasma): 309.6 Å²

SMILES: CCCCCCCC/C=C\CCCCCCCC(=O)N[C@@H](COP(=O)([O-])OCC[N+](C)(C)C)[C@H](O)/C=C/CCCCCCCCCCCCC [SM d18:1@_18:1@] (ion (formula + adduct): [C41H81N2O6P+H] 1+)
- TIMS collisional cross section (sample type: plasma): 287.5 Å²

SMILES: CCCCCCCCCCCCC/C=C/[C@@H](O)[C@H](COP(=O)([O-])OCC[N+](C)(C)C)NC(=O)CCCCCCCCCCCCC [SM d18:1_14:0@] (ion (formula + adduct): [C37H75N2O6P+H] 1+)
- TIMS collisional cross section (sample type: HeLa): 279.1 Å²

SMILES: CCCCCCCCCCCCC/C=C/[C@@H](O)[C@H](COP(=O)([O-])OCC[N+](C)(C)C)NC(=O)CCCCCCCCCCCCCCC [SM d18:1_16:0@] (ion (formula + adduct): [C39H79N2O6P+H] 1+)
- TIMS collisional cross section (sample type: HeLa): 284.9 Å²
- TIMS collisional cross section (sample type: Liver): 285 Å²
- TIMS collisional cross section (sample type: plasma): 285.4 Å²

SMILES: CCCCCCCCCCCCC/C=C/[C@@H](O)[C@H](COP(=O)([O-])OCC[N+](C)(C)C)NC(=O)CCCCCCCCCCCCCCCCCCC [SM d18:1_20:0@] (ion (formula + adduct): [C43H87N2O6P+H] 1+)
- TIMS collisional cross section (sample type: plasma): 297 Å²

SMILES: CCCCCCCCCCCCC/C=C/[C@@H](O)[C@H](COP(=O)([O-])OCC[N+](C)(C)C)NC(=O)CCCCCCCCCCCCCCCCCCCCC [SM d18:1_22:0@] (ion (formula + adduct): [C45H91N2O6P+H] 1+)
- TIMS collisional cross section (sample type: Liver): 302.3 Å²
- TIMS collisional cross section (sample type: plasma): 301.9 Å²

SMILES: CCCCCCCC/C=C\CCCCCCCCCCCC(=O)N[C@@H](COP(=O)([O-])OCC[N+](C)(C)C)[C@H](O)/C=C/CCCCCCCCCCCCC [SM d18:1_22:1@] (ion (formula + adduct): [C45H89N2O6P+H] 1+)
- TIMS collisional cross section (sample type: Liver): 299.3 Å²
- TIMS collisional cross section (sample type: plasma): 299 Å²

SMILES: CCCCCCCCCCCCC/C=C/[C@@H](O)[C@H](COP(=O)([O-])OCC[N+](C)(C)C)NC(=O)CCCCCCCCCCCCCCCCCCCCCCC [SM d18:1_24:0@] (ion (formula + adduct): [C47H95N2O6P+H] 1+)
- TIMS collisional cross section (sample type: HeLa): 308.3 Å²
- TIMS collisional cross section (sample type: plasma): 308.1 Å²

SMILES: CCCCCCCC/C=C\CCCCCCCCCCCCCC(=O)N[C@@H](COP(=O)([O-])OCC[N+](C)(C)C)[C@H](O)/C=C/CCCCCCCCCCCCC [SM d18:1_24:1@] (ion (formula + adduct): [C47H93N2O6P+H] 1+)
- TIMS collisional cross section (sample type: HeLa): 305.4 ± 0.14 Å²
- TIMS collisional cross section (sample type: Liver): 305.3 Å²
- TIMS collisional cross section (sample type: plasma): 305.5 Å²

SMILES: CCC/C=C\CCCCCCCC/C=C/[C@@H](O)[C@H](COP(=O)([O-])OCC[N+](C)(C)C)NC(=O)CCCCCCCCCCCCC [SM d18:2_14:0@] (ion (formula + adduct): [C37H73N2O6P+H] 1+)
- TIMS collisional cross section (sample type: HeLa): 275 Å²

SMILES: CCC/C=C\CCCCCCCC/C=C/[C@@H](O)[C@H](COP(=O)([O-])OCC[N+](C)(C)C)NC(=O)CCCCCCCCCCCCCCC [SM d18:2_16:0@] (ion (formula + adduct): [C39H77N2O6P+H] 1+)
- TIMS collisional cross section (sample type: HeLa): 281.4 Å²
- TIMS collisional cross section (sample type: plasma): 281.3 Å²

SMILES: CCC/C=C\CCCCCCCC/C=C/[C@@H](O)[C@H](COP(=O)([O-])OCC[N+](C)(C)C)NC(=O)CCCCCCCCCCCCCCCCCCCCC [SM d18:2_22:0@] (ion (formula + adduct): [C45H89N2O6P+H] 1+)
- TIMS collisional cross section (sample type: plasma): 299.9 Å²

SMILES: CCCCCCCCCCCCCC(=O)OC[C@@H](COC(=O)CCCCCCCCCCC)OC(=O)CCCCCCCCCCC [TG 12:0_12:0_14:0] (ion (formula + adduct): [C41H78O6+NH4] 1+)
- TIMS collisional cross section (sample type: HeLa): 283 Å²
- TIMS collisional cross section (sample type: Liver): 281.3 ± 0.57 Å²
- TIMS collisional cross section (sample type: plasma): 282.9 Å²

SMILES: CCCC/C=C\CCCCCCCC(=O)OC[C@@H](COC(=O)CCCCCCCCCCC)OC(=O)CCCCCCCCCCC [TG 12:0_12:0_14:1] (ion (formula + adduct): [C41H76O6+NH4] 1+)
- TIMS collisional cross section (sample type: plasma): 278.9 Å²

SMILES: CCCCC/C=C\CCCCCCCC(=O)OC[C@@H](COC(=O)CCCCCCCCCCC)OC(=O)CCCCCCCCCCC [TG 12:0_12:0_15:1] (ion (formula + adduct): [C42H78O6+NH4] 1+)
- TIMS collisional cross section (sample type: Liver): 280.4 Å²

SMILES: CCCCCCCCCCCCCCCC(=O)OC[C@@H](COC(=O)CCCCCCCCCCC)OC(=O)CCCCCCCCCCC [TG 12:0_12:0_16:0] (ion (formula + adduct): [C43H82O6+NH4] 1+)
- TIMS collisional cross section (sample type: HeLa): 288 Å²

SMILES: CCCCCC/C=C\CCCCCCCC(=O)OC[C@@H](COC(=O)CCCCCCCCCCC)OC(=O)CCCCCCCCCCC [TG 12:0_12:0_16:1] (ion (formula + adduct): [C43H80O6+NH4] 1+)
- TIMS collisional cross section (sample type: Liver): 284.2 Å²
- TIMS collisional cross section (sample type: plasma): 284.1 Å²

SMILES: CCCCCCCC/C=C\CCCCCCCC(=O)OC[C@@H](COC(=O)CCCCCCCCCCC)OC(=O)CCCCCCCCCCC [TG 12:0_12:0_18:1] (ion (formula + adduct): [C45H84O6+NH4] 1+)
- TIMS collisional cross section (sample type: Liver): 291.3 Å²

SMILES: CCCCCCCCCCCCC(=O)OC[C@@H](COC(=O)CCCCCCCCCCC)OC(=O)CCCCCCCCCCCC [TG 12:0_13:0_13:0] (ion (formula + adduct): [C41H78O6+NH4] 1+)
- TIMS collisional cross section (sample type: Liver): 282.7 Å²

SMILES: CCCCCCCCCCCCCC(=O)OC[C@@H](COC(=O)CCCCCCCCCCC)OC(=O)CCCCCCCCCCCCC [TG 12:0_14:0_14:0] (ion (formula + adduct): [C43H82O6+NH4] 1+)
- TIMS collisional cross section (sample type: HeLa): 289 Å²
- TIMS collisional cross section (sample type: Liver): 289.1 Å²
- TIMS collisional cross section (sample type: plasma): 289.1 Å²

SMILES: CCCCCCCCCCCCCCC(=O)OC[C@@H](COC(=O)CCCCCCCCCCC)OC(=O)CCCCCCCCCCCCC [TG 12:0_14:0_15:0] (ion (formula + adduct): [C44H84O6+NH4] 1+)
- TIMS collisional cross section (sample type: HeLa): 291.9 Å²

SMILES: CCCCC/C=C\CCCCCCCC(=O)OC[C@@H](COC(=O)CCCCCCCCCCC)OC(=O)CCCCCCCCCCCCC [TG 12:0_14:0_15:1] (ion (formula + adduct): [C44H82O6+NH4] 1+)
- TIMS collisional cross section (sample type: HeLa): 289.5 Å²

SMILES: CCCCCCCCCCCCCCCC(=O)OC[C@@H](COC(=O)CCCCCCCCCCC)OC(=O)CCCCCCCCCCCCC [TG 12:0_14:0_16:0] (ion (formula + adduct): [C45H86O6+NH4] 1+)
- TIMS collisional cross section (sample type: HeLa): 294.93 ± 0.32 Å²
- TIMS collisional cross section (sample type: Liver): 295.2 ± 0.42 Å²
- TIMS collisional cross section (sample type: plasma): 295.5 Å²

SMILES: CCCCCC/C=C\CCCCCCCC(=O)OC[C@@H](COC(=O)CCCCCCCCCCC)OC(=O)CCCCCCCCCCCCC [TG 12:0_14:0_16:1] (ion (formula + adduct): [C45H84O6+NH4] 1+)
- TIMS collisional cross section (sample type: HeLa): 292.8 Å²

SMILES: CCCCCCCC/C=C\CCCCCCCC(=O)OC[C@@H](COC(=O)CCCCCCCCCCC)OC(=O)CCCCCCCCCCCCC [TG 12:0_14:0_18:1] (ion (formula + adduct): [C47H88O6+NH4] 1+)
- TIMS collisional cross section (sample type: plasma): 298.9 Å²

SMILES: CCCCC/C=C\C/C=C\CCCCCCCC(=O)OC[C@@H](COC(=O)CCCCCCCCCCC)OC(=O)CCCCCCCCCCCCC [TG 12:0_14:0_18:2] (ion (formula + adduct): [C47H86O6+NH4] 1+)
- TIMS collisional cross section (sample type: Liver): 295.4 Å²
- TIMS collisional cross section (sample type: plasma): 295.8 Å²

SMILES: CCCC/C=C\CCCCCCCC(=O)O[C@H](COC(=O)CCCCCCCCCCC)COC(=O)CCCCCCCCCCCCCCC [TG 12:0_14:1_16:0] (ion (formula + adduct): [C45H84O6+NH4] 1+)
- TIMS collisional cross section (sample type: plasma): 291.9 Å²

SMILES: CCCC/C=C\CCCCCCCC(=O)O[C@@H](COC(=O)CCCCCCC/C=C\CCCCCC)COC(=O)CCCCCCCCCCC [TG 12:0_14:1_16:1] (ion (formula + adduct): [C45H82O6+NH4] 1+)
- TIMS collisional cross section (sample type: HeLa): 290.3 Å²

SMILES: CCCC/C=C\CCCCCCCC(=O)O[C@@H](COC(=O)CCCCCCC/C=C\C/C=C\CCCCC)COC(=O)CCCCCCCCCCC [TG 12:0_14:1_18:2] (ion (formula + adduct): [C47H84O6+NH4] 1+)
- TIMS collisional cross section (sample type: plasma): 293.8 Å²

SMILES: CCCCCCCCCCCCCCCCC(=O)OC[C@@H](COC(=O)CCCCCCCCCCC)OC(=O)CCCCCCCCCCCCCC [TG 12:0_15:0_17:0] (ion (formula + adduct): [C47H90O6+NH4] 1+)
- TIMS collisional cross section (sample type: plasma): 302.1 Å²

SMILES: CCCCCC/C=C\CCCCCCCC(=O)OC[C@@H](COC(=O)CCCCCCCCCCC)OC(=O)CCCCCCCCCCCCCCC [TG 12:0_16:0_16:1] (ion (formula + adduct): [C47H88O6+NH4] 1+)
- TIMS collisional cross section (sample type: Liver): 299.2 Å²

SMILES: CCCCCCCCCCCCCCCCC(=O)OC[C@@H](COC(=O)CCCCCCCCCCC)OC(=O)CCCCCCCCCCCCCCC [TG 12:0_16:0_17:0] (ion (formula + adduct): [C48H92O6+NH4] 1+)
- TIMS collisional cross section (sample type: Liver): 304.5 Å²

SMILES: CCCCCCCC/C=C\CCCCCCCC(=O)OC[C@@H](COC(=O)CCCCCCCCCCC)OC(=O)CCCCCCCCCCCCCCC [TG 12:0_16:0_18:1] (ion (formula + adduct): [C49H92O6+NH4] 1+)
- TIMS collisional cross section (sample type: HeLa): 305.7 Å²

SMILES: CCCCC/C=C\C/C=C\C/C=C\C/C=C\CCCC(=O)OC[C@@H](COC(=O)CCCCCCCCCCC)OC(=O)CCCCCCCCCCCCCCC [TG 12:0_16:0_20:4] (ion (formula + adduct): [C51H90O6+NH4] 1+)
- TIMS collisional cross section (sample type: plasma): 307.4 Å²

SMILES: CC/C=C\C/C=C\C/C=C\C/C=C\C/C=C\C/C=C\CCC(=O)OC[C@@H](COC(=O)CCCCCCCCCCC)OC(=O)CCCCCCCCCCCCCCC [TG 12:0_16:0_22:6] (ion (formula + adduct): [C53H90O6+NH4] 1+)
- TIMS collisional cross section (sample type: Liver): 307.6 Å²
